# Source: patent US12714686B2, “N-propargylglycine: a unique inhibitor of proline dehydrogenase with brain-enhancing mitohormesis properties capable of mitigating the pathogenesis of neurodegenerative disorders” (Buck Institute for Research on Aging, priority 2020, dated 2026)
# Entries after “also recorded” stand apart in the source; their conditions may differ.
# Legend:
# [1] = molecular target: T1, proline dehydrogenase (PRODH) (Homo sapiens, UniProt O43272); experiment: PRODH enzyme inhibition; assay type: biochemical
# T1 sequence (O43272 1-600): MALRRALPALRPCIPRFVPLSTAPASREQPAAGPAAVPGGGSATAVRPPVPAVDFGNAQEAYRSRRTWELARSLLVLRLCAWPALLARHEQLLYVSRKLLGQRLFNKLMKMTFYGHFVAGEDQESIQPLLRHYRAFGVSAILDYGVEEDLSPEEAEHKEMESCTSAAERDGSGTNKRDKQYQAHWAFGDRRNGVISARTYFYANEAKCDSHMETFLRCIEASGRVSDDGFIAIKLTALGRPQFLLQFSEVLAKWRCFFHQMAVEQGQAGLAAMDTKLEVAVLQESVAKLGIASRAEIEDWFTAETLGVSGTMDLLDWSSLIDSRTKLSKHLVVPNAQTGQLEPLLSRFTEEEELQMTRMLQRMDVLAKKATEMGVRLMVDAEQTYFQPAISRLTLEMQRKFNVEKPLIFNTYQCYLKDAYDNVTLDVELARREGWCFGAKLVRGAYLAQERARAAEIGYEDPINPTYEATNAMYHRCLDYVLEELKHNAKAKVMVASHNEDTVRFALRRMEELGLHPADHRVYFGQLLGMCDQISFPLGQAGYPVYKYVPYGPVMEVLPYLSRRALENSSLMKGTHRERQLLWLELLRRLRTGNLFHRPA
# [2] = tested on: PRODH expressing mammalian cell systems; experiment: UPRmt activation and mitohormesis induction in PRODH expressing mammalian cell systems; assay type: cell-based; details: all PRODH expressing mammalian cell systems studied to date
# [3] = tested on: HSP-60; experiment: Study A: brain chaperone HSP-60 transcripts by RT-PCR; assay type: in vivo; details: single mouse brain, 200 mg/kg oral N-PPG, 9 days
# Method: (§1) For Study A, beginning at 5 weeks of age, seven male and female mice (WT) were daily administered oral N-PPG over a graduated dose range of 50 mg/kg to 200 mg/kg for 9 days, while 4 other age- and sex-matched control mice (W) were given only daily saline.
# (§2) For Study B, beginning at 5-weeks of age, four male and female Htt-mut mice (HT) were administered oral N-PPG at 50 mg/kg daily for 9 days, while four other age- and sex-matched Htt-mut mice (H) were given only daily saline. All Study A and B mice were sacrificed within 4 h of receiving their last treatment (week 7). […] Excised brains were snap frozen in liquid nitrogen for latter cryopulverization, extraction and analysis of total brain RNA and protein.
# [4] = molecular target: T2, PRODH (Mus musculus, UniProt Q9WU79); experiment: Study A: oral N-PPG in wildtype mice, whole brain PRODH protein (western blot) and mRNA; assay type: in vivo; details: whole brain lysates
# T2 construct: Western blots of whole brain lysates from wildtype B6/CBA mice; from tissue; R6/2 Htt-mut in B6/CBA background
# T2 sequence (Q9WU79 1-599): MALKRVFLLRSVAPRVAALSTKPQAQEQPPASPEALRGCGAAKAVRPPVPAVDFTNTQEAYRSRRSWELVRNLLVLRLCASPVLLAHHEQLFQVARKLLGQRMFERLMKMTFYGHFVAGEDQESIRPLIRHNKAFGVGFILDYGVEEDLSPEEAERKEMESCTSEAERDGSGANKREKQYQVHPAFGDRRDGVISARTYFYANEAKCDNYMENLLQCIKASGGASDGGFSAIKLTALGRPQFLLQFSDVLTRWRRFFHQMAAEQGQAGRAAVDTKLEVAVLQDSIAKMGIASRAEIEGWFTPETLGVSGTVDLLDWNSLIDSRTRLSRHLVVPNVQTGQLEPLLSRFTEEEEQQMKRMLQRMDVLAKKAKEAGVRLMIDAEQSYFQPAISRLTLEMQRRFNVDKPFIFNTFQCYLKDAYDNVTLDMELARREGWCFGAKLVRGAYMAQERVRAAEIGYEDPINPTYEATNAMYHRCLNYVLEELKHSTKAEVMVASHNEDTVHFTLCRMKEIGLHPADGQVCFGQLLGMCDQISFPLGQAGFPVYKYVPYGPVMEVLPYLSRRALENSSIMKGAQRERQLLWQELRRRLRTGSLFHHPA
# Method: as §1, §2
# [5] = molecular target: T2, PRODH; experiment: Study B: oral N-PPG in Htt-mut (R6/2) mice, whole brain PRODH protein; assay type: in vivo; details: HT mice, 50 mg/kg/day orally x 9 days vs saline, compared with wildtype
# Method: as §2
# [6] = tested on: YME1L1; experiment: Study A: brain UPRmt protease YME1L1 mRNA and protein expression; assay type: in vivo, mouse
# Method: as §1, §2
# [7] = Tolerability of oral N-PPG in Study A and B mice (body weight, vitality, side effects); assay type: in vivo, mouse
# Method: as §1, §2
# [8] = tested on: Htt-mut mouse brain transcriptome; experiment: Study B: whole brain RNA transcriptome (RNAseq) of Htt-mut mice; assay type: in vivo
# Method: as §2
# [9] = Brain penetration of orally administered N-PPG; assay type: in vivo; details: oral, repeated administration; inferred from brain UPRmt induction
# [10] = tested on: YME1L1; experiment: Study B: brain YME1L1 in Htt-mut and wildtype mice; assay type: in vivo, mouse; details: 50 mg/kg/day oral N-PPG, 9 days
# Method: as §2
# [11] = tested on: mouse brain transcriptome; experiment: Study A: whole brain transcriptome (RNAseq) and pathway analysis; assay type: in vivo
# Method: as §1, §2
# [12] = over-representation analysis, FDR p<0.05
compound,measurement,setting,value
O=C1CCC(C(=O)O)O1 (centres unmarked) [5-oxo],PRODH enzyme inhibiting potency relative to N-PPG,[1],comparable
same,activation of UPRmt and induction of mitohormesis,[2],do not activate the UPRmt or induce mitohormesis
"C#CCNCC(=O)O [N-PPG, N-propargylglycine]",induction of chaperone HSP-60 transcripts relative to housekeeping transcripts,[3],1.7 fold
same,reduction in mean PRODH expression (PRODH signals normalized to β-actin or Rieske),"[4]; wildtype B6/CBA mice, oral 50 mg/kg N-PPG for nine days vs saline",at least 30%
same,normalized mean PRODH expression levels,"[4]; wildtype mice, oral saline, 50, 100, 150 or 200 mg/kg N-PPG",dose-dependent decline
same,brain PRODH protein decay in Htt-mut mice,[5],partial mitochondrial PRODH protein degradation
same,mitochondrial YME1L1 mRNA and protein expression,"[6]; WT mice, 50 mg/kg dose, brain",increased
same,induction of mitochondrial protease YME1L1 transcripts relative to housekeeping transcripts,"[6]; single mouse brain, 200 mg/kg oral N-PPG, 9 days, RT-PCR",1.4 fold
same,increase in mean YME1L1 expression (signals normalized to β-actin or Rieske),"[6]; wildtype mice, 50 mg/kg oral N-PPG vs saline, whole brain lysates, western blot",~ 40%
same,health of mice at sacrifice (repeated body weight and vitality measurements),"[7]; all Study A and B mice, week 7",healthy and asymptomatic
same,systemic or neurologic side effects,"[7]; mice, daily oral 50 to 200 mg/kg N-PPG, 9 days",without any systemic or neurologic side effects; also recorded: without causing any adverse systemic or neurologic consequences
same,normalization of deranged whole brain transcriptome of Htt-mut mice,"[8]; HT mice, 50 mg/kg/day orally x 9 days vs untreated H, includes TH, DRD1, ADORA2A, 50 mg/kg/day",partial-to complete normalization; also recorded: normalizes HT transcriptomes away from Htt-mut (H) and more toward wildtype (W)
same,"differentially expressed genes between WT, HT, W and H brains","[8]; Study B, RNAseq, FDR p<0.05",622 genes
same,Htt-mut treated mice with full transcriptome normalization,"[8]; four HT mice, 50 mg/kg/day orally x 9 days",one of the four
same,crossing of the blood-brain-barrier,[9],capable of crossing the mammalian blood-brain-barrier
same,brain YME1L1 in Htt-mut and wildtype mice,[10],YME1L1 upregulation
same,whole brain transcriptome pathway analysis,"[11]; WT vs W mice, RNAseq, FDR p<0.05","upregulation of pathways (GO, Reactome) specifically regulating neuronal cell functions"
same,genes differentially expressed (p<0.05) between N-PPG treated and saline treated brains,"[11]; five WT (50 mg/kg, one 100 mg/kg, oral 9 days) vs four W brains, RNAseq",1324 genes
same,upregulated genes among the differentially expressed genes,"[11]; five WT vs four W brains, RNAseq",841 genes
same,Reactome neural pathways encoded by upregulated genes,[11]; [12],7
same,enriched Gene Ontology (GO) pathways encoded by upregulated genes,[11]; [12],77
same,activation of UPRmt and induction of mitohormesis,[2],activate the mitochondrial unfolded protein response (UPRmt) and induce mitohormesis
O=C(O)C1NCCS1 (centres unmarked) [T2C],PRODH enzyme inhibiting potency relative to N-PPG,[1],comparable
same,activation of UPRmt and induction of mitohormesis,[2],do not activate the UPRmt or induce mitohormesis
O=C(O)C1CCCO1 (centres unmarked) [THFA],PRODH enzyme inhibiting potency relative to N-PPG,[1],comparable
same,activation of UPRmt and induction of mitohormesis,[2],do not activate the UPRmt or induce mitohormesis
